Assay results: patent US20260327240A1, “1,4-CINEOLE DERIVATIVE AND INTERMEDIATE THEREOF, HERBICIDE CONTAINING SAID DERIVATIVE AS ACTIVE INGREDIENT, METHOD FOR USING HERBICIDE, AND METHOD FOR PREPARING AGROCHEMICAL COMPOSITION” (HOKKO CHEMICAL INDUSTRY CO., LTD., priority 2023, published 2026)

Key:
Type in all cases: in vivo
[1] = system: Echinochloa crus-galli var. formosensis; assay: Test Example 1: herbicidal effect test by soil application in paddy rice; conditions: Echinochloa crus-galli, 336 h, 120 g per 10 ares, 14 days after application, read-out: weed inhibition rate
Summary of the method: (§1)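 Paddy soil in flooded Wagner pots (~3 cm water), weed seeds sown at 0–1 cm depth, greenhouse; emulsifiable concentrate diluted in water and applied by dropper immediately after sowing at 120 g active ingredient per 10 ares. Duplicate pots; weed inhibition rate (%) scored 14 days after application.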

Monochoria vaginalis = assay: as above; conditions: Pontederia vaginalis, 336 h, 120 g per 10 ares, 14 days after application, read-out: weed inhibition rate
Summary of the method: as §1

Scirpus juncoides [2] = assay: as above; conditions: Schoenoplectiella juncoides, 336 h, 120 g per 10 ares, 14 days after application, read-out: weed inhibition rate
Summary of the method: as §1

[3] = system: Echinochloa crus-galli var. formosensis; assay: Test Example 2: herbicidal effect test by application during growth period of paddy rice; conditions: Echinochloa crus-galli, 7 days after sowing, 120 g per 10 ares, 14 days after application, read-out: weed inhibition rate
Summary of the method: (§2)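 Flooded paddy-soil pots (about 3 cm water) sown with 30 seeds per weed species and kept in a greenhouse. Emulsifiable concentrate applied by dropper seven days after sowing at 120 g active ingredient per 10 ares, in duplicate. Herbicidal effect scored 14 days after application.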

Scirpus juncoides [4] = assay: as above; conditions: Schoenoplectiella juncoides, 7 days after sowing, 120 g per 10 ares, 14 days after application, read-out: weed inhibition rate
Summary of the method: as §2

Digitaria ciliaris = assay: Test Example 3: herbicidal effect test by soil application in upland field; conditions: Digitaria ciliaris, 1 day after sowing, 120 g per 10 ares, 14 days after application, read-out: weed inhibition rate
Summary of the method: (§3)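 Twenty seeds per weed species were mixed into the top 1 cm of alluvial loam in pots. One day after sowing, an emulsifiable concentrate diluted in water was sprayed on the soil surface at 120 g active ingredient per 10 ares.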

Echinochloa crus-galli [5] = assay: as above; conditions: Echinochloa crus-galli, 1 day after sowing, 120 g per 10 ares, 14 days after application, read-out: weed inhibition rate
Summary of the method: as §3

[6] = system: Echinochloa crus-galli var. formosensis; assay: Test Example 5: herbicidal effect test by soil application in paddy rice; conditions: Echinochloa crus-galli, 336 h, 7.5 g per 10 ares, 14 days after application, read-out: weed inhibition rate
Method: Herbicidal Effect Test by Soil Application in Paddy Rice
(§4) Wagner pots with an area of […] were filled with paddy soil, followed by addition of water and incorporation of chemical fertilizer (N:P:K=16:16:16), after which puddling was performed. After that, seeds of Echinochloa crus-galli var. formosensis, broad-leaved weeds (Lindemia pyxidaria, and Monochoria vaginalis), and Scirpus juncoides were sown at a depth of 0 cm to 1 cm, 30 seeds each. Immediately after sowing, the pots were flooded and a water depth of approximately 3 cm was maintained. Subsequent management was conducted in a glass greenhouse. Immediately thereafter, an emulsifiable concentrate prepared according to Formulation Example 5 using the compound shown below was diluted with water, and a specified amount of the diluted solution was applied by dropper. The amount of the active ingredient to be applied was equivalent to 7.5 g per 10 ares.
The present test was conducted in duplicate for each chemical concentration group, and the herbicidal effect was evaluated 14 days after chemical application using the same criteria as in Test Example 1.

[7] = system: Echinochloa crus-galli var. formosensis; assay: Test Example 6: herbicidal effect test by application during growth period of paddy rice; conditions: Echinochloa crus-galli, 7 days after sowing, 7.5 g per 10 ares, 14 days after application, read-out: weed inhibition rate
Method: Herbicidal Effect Test by Application During Growth Period of Paddy Rice
as §4, with “Seven days after sowing,” for “Immediately thereafter,”, “ares. The test was conducted in duplicate for each chemical concentration group, and the herbicidal effect was evaluated 14 days after chemical application using the same criteria as in Test Example 1.” for “ares.”

Echinochloa crus-galli [8] = assay: Test Example 8: herbicidal effect test by stem and leaf treatment in upland field; conditions: Echinochloa crus-galli, 7 days after sowing, 7.5 g per 10 ares, 14 days after application, read-out: weed inhibition rate
Method: Herbicidal Effect Test by Stem and Leaf Treatment in Upland Field
Pots with an area of 36 cm^2 were filled with upland soil (alluvial loam), twenty seeds each of weeds of Digitaria ciliaris, Echinochloa crus-galli, Chenopodium album, and Amaranthus viridis were uniformly mixed with the top 1 cm layer of soil and the surface was lightly pressed down. Seven days after sowing, an emulsifiable concentrate prepared according to Formulation Example 5 using the compound shown below was diluted with water, and the diluted solution was sprayed onto the soil surface at a rate of 100 liters per 10 ares. The amount of the active ingredient to be applied was equivalent to 7.5 g per 10 ares. Fourteen days after chemical application, the herbicidal effect was evaluated according to the same criteria as in Test Example 1.

CCOC(C)O[C@H]1C[C@]2(C)O[C@@]1(C(C)C)C[C@H]2OCc1ccccc1F (stereo partly drawn) [1-213, (1R,2S,4S,5R)-2-(1-ethoxyethoxy)-5-((2-fluorobenzyl)oxy)-1-isopropyl-4-methyl-7-oxabicyclo[2.2.1]heptane]
≥ 80%: inhibition at 1200 g/ha [1] | inhibition at 1200 g/ha (Monochoria vaginalis) | inhibition at 1200 g/ha (Scirpus juncoides [2]) | inhibition at 1200 g/ha [3] | inhibition at 1200 g/ha (Scirpus juncoides [4]) | inhibition at 1200 g/ha (Digitaria ciliaris) | inhibition at 1200 g/ha (Echinochloa crus-galli [5]) | inhibition at 75 g/ha [6] | inhibition at 75 g/ha [7] | inhibition at 75 g/ha (Echinochloa crus-galli [8])
